Measured values published in ChEMBL document CHEMBL4145521, “Regioselective synthesis of 3,4-diaryl-5-unsubstituted isoxazoles, analogues of natural cytostatic combretastatin A4” (Eur J Med Chem, 2018).

How the values were obtained:
Assay type in all cases: functional
SNB-75 = assay: Cytotoxicity against human SNB75 cells assessed as cell growth at 10 uM incubated for 48 hrs by sulforhodamine B assay relative to control; settings: SNB-75, 48 h, read-out: Activity
OVCAR-3 = assay: Cytotoxicity against human OVCAR3 cells assessed as cell growth at 0.1 uM incubated for 48 hrs by sulforhodamine B assay relative to control; settings: OVCAR-3, 48 h, read-out: Activity
EKVX [1] = assay: Cytotoxicity against human EKVX cells assessed as cell growth at 0.01 uM incubated for 48 hrs by sulforhodamine B assay relative to control; settings: read-out: Activity
OVCAR-4 [2] = assay: Cytotoxicity against human OVCAR4 cells assessed as cell growth at 10 uM incubated for 48 hrs by sulforhodamine B assay relative to control; settings: OVCAR-4, 48 h, read-out: Activity
RXF 393 [3] = assay: Cytotoxicity against human RXF393 cells assessed as cell growth at 1 uM incubated for 48 hrs by sulforhodamine B assay relative to control; settings: RXF 393, 48 h, read-out: Activity
RPMI-8226 = assay: Cytotoxicity against human RPMI8226 cells assessed as cell growth at 1 uM incubated for 48 hrs by sulforhodamine B assay relative to control; settings: RPMI-8226, 48 h, read-out: Activity
786-0 = assay: Cytotoxicity against human 786-0 cells assessed as cell growth at 0.1 uM incubated for 48 hrs by sulforhodamine B assay relative to control; settings: 786-0, 48 h, read-out: Activity
RXF 393 [4] = assay: Cytotoxicity against human RXF393 cells assessed as cell growth at 0.01 uM incubated for 48 hrs by sulforhodamine B assay relative to control; settings: RXF 393, 48 h, read-out: Activity
IGROV-1 = assay: Cytotoxicity against human IGROV1 cells assessed as cell growth at 100 uM incubated for 48 hrs by sulforhodamine B assay relative to control; settings: IGROV-1, 48 h, read-out: Activity
NCI-H23 = assay: Cytotoxicity against human NCI-H23 cells assessed as cell growth at 1 uM incubated for 48 hrs by sulforhodamine B assay relative to control; settings: NCI-H23, 48 h, read-out: Activity
EKVX [5] = assay: Cytotoxicity against human EKVX cells incubated for 48 hrs by sulforhodamine B assay
SNB-19 = assay: Cytotoxicity against human SNB19 cells assessed as cell growth at 0.01 uM incubated for 48 hrs by sulforhodamine B assay relative to control; settings: SNB-19, 48 h, read-out: Activity
DU-145 = assay: Cytotoxicity against human DU145 cells assessed as cell growth at 100 uM incubated for 48 hrs by sulforhodamine B assay relative to control; settings: DU-145, 48 h, read-out: Activity
OVCAR-4 [6] = assay: Cytotoxicity against human OVCAR4 cells assessed as cell growth at 0.1 uM incubated for 48 hrs by sulforhodamine B assay relative to control; settings: OVCAR-4, 48 h, read-out: Activity
HOP-62 = assay: Cytotoxicity against human HOP62 cells assessed as cell growth at 0.1 uM incubated for 48 hrs by sulforhodamine B assay relative to control; settings: HOP-62, 48 h, read-out: Activity
HCT-15 = assay: Cytotoxicity against human HCT15 cells assessed as cell growth at 1 uM incubated for 48 hrs by sulforhodamine B assay relative to control; settings: HCT-15, 48 h, read-out: Activity
Hs-578T = assay: Cytotoxicity against human Hs 578T cells assessed as cell growth at 0.1 uM incubated for 48 hrs by sulforhodamine B assay relative to control; settings: read-out: Activity
HT-29 [7] = assay: Cytotoxicity against human HT-29 cells assessed as cell growth at 0.01 uM incubated for 48 hrs by sulforhodamine B assay relative to control; settings: HT-29, 48 h, read-out: Activity
A498 [8] = assay: Cytotoxicity against human A498 cells incubated for 48 hrs by sulforhodamine B assay; settings: A498, 48 h
SF-539 = assay: Cytotoxicity against human SF539 cells assessed as cell growth at 0.01 uM incubated for 48 hrs by sulforhodamine B assay relative to control; settings: SF-539, 48 h, read-out: Activity
PC-3 = assay: Cytotoxicity against human PC3 cells assessed as cell growth at 1 uM incubated for 48 hrs by sulforhodamine B assay relative to control; settings: PC-3, 48 h, read-out: Activity
TK-10 = assay: Cytotoxicity against human TK10 cells incubated for 48 hrs by sulforhodamine B assay; settings: TK-10, 48 h
T47D = assay: Cytotoxicity against human T47D cells assessed as cell growth at 10 uM incubated for 48 hrs by sulforhodamine B assay relative to control; settings: read-out: Activity
HCT-116 = assay: Cytotoxicity against human HCT116 cells assessed as cell growth at 100 uM incubated for 48 hrs by sulforhodamine B assay relative to control; settings: HCT-116, 48 h, read-out: Activity
LOX IMVI = assay: Cytotoxicity against human LOXIMVI cells incubated for 48 hrs by sulforhodamine B assay
A498 [9] = assay: Cytotoxicity against human A498 cells assessed as cell growth at 0.01 uM incubated for 48 hrs by sulforhodamine B assay relative to control; settings: A498, 48 h, read-out: Activity
UACC-62 = assay: Cytotoxicity against human UACC62 cells assessed as cell growth at 0.01 uM incubated for 48 hrs by sulforhodamine B assay relative to control; settings: UACC-62, 48 h, read-out: Activity
HT-29 [10] = assay: Cytotoxicity against human HT-29 cells assessed as cell growth at 1 uM incubated for 48 hrs by sulforhodamine B assay relative to control; settings: HT-29, 48 h, read-out: Activity
SK-OV-3 = assay: Cytotoxicity against human SKOV3 cells assessed as cell growth at 100 uM incubated for 48 hrs by sulforhodamine B assay relative to control; settings: SK-OV-3, 48 h, read-out: Activity
NCI/ADR-RES = assay: Cytotoxicity against human NCI/ADR-RES cells assessed as cell growth at 100 uM incubated for 48 hrs by sulforhodamine B assay relative to control; settings: read-out: Activity
BT-549 = assay: Cytotoxicity against human BT549 cells assessed as cell growth at 100 uM incubated for 48 hrs by sulforhodamine B assay relative to control; settings: BT-549, 48 h, read-out: Activity
MOLT-4 = assay: Cytotoxicity against human MOLT4 cells assessed as cell growth at 0.01 uM incubated for 48 hrs by sulforhodamine B assay relative to control; settings: MOLT-4, 48 h, read-out: Activity
[11] = read-out: LC50 (the source's name)
[12] = read-out: pLC50 (the source's name) (converted)

COc1ccc(-c2nocc2-c2cc(OC)c(OC)c(OC)c2)cc1
growth at 10 µM (SNB-75): 19% | growth at 0.1 µM (OVCAR-3): 15% | growth at 0.01 µM (EKVX [1]): 83% | growth at 10 µM (OVCAR-4 [2]): 32% | growth at 1 µM (RXF 393 [3]): -7% | growth at 1 µM (RPMI-8226): 32% | growth at 0.1 µM (786-0): 54% | growth at 0.01 µM (RXF 393 [4]): 103% | growth at 100 µM (IGROV-1): 2% | growth at 1 µM (NCI-H23): 29% | GI50 (EKVX [5]; read-out: GI50): 96 nM | CC50 (EKVX [5]; [11]): > 100 µM | TGI (EKVX [5]; read-out: TGI): > 100 µM | GI50 (EKVX [5]; read-out: pGI50 (converted)): 95.5 nM | CC50 (EKVX [5]; [12]): > 100 µM | TGI (EKVX [5]; read-out: pTGI): > 100 µM | growth at 0.01 µM (SNB-19): 98% | growth at 100 µM (DU-145): 7% | growth at 0.1 µM (OVCAR-4 [6]): 73% | growth at 0.1 µM (HOP-62): 58% | growth at 1 µM (HCT-15): 23% | growth at 0.1 µM (Hs-578T): 77% | growth at 0.01 µM (HT-29 [7]): 98% | GI50 (A498 [8]; read-out: GI50): 33.6 nM | LC50 (A498 [8]; read-out: LC50): > 100 µM | TGI (A498 [8]; read-out: TGI): 816 nM | GI50 (A498 [8]; read-out: pGI50 (converted)): 33.9 nM | LC50 (A498 [8]; read-out: pLC50 (converted)): > 100 µM | TGI (A498 [8]; read-out: pTGI (converted)): 813 nM | growth at 0.01 µM (SF-539): 86% | growth at 1 µM (PC-3): 18% | GI50 (TK-10; read-out: GI50): 79.2 nM | CC50 (TK-10; [11]): > 100 µM | TGI (TK-10; read-out: TGI): 43.1 µM | GI50 (TK-10; read-out: pGI50 (converted)): 79.4 nM | CC50 (TK-10; [12]): > 100 µM | TGI (TK-10; read-out: pTGI (converted)): 42.7 µM | growth at 10 µM (T47D): 52% | growth at 100 µM (HCT-116): -29% | GI50 (LOX IMVI; read-out: GI50): 254 nM | LC50 (concentration killing 50% of cells) (LOX IMVI; read-out: LC50): > 100 µM | TGI (LOX IMVI; read-out: TGI): 55.5 µM | GI50 (LOX IMVI; read-out: pGI50 (converted)): 257 nM | LC50 (concentration killing 50% of cells) (LOX IMVI; read-out: pLC50 (converted)): > 100 µM | TGI (LOX IMVI; read-out: pTGI (converted)): 55 µM | growth at 0.01 µM (A498 [9]): 73% | growth at 0.01 µM (UACC-62): 90% | growth at 1 µM (HT-29 [10]): 2% | growth at 100 µM (SK-OV-3): 5% | growth at 100 µM (NCI/ADR-RES): -7% | growth at 100 µM (BT-549): -24% | growth at 0.01 µM (MOLT-4): 99%
